Data as given in BindingDB's records for doi:10.1021/jm0209984 (Universit&#224, 2003).

Experiment: Concentration required to achieve 50% protection of MT-4 cell from the HIV-1 induced cytopathogenicity was determined by the MTT method

O=C(c1ccc(Cl)cc1Cl)N(C(=S)OCCOc1ccccc1)c1ccccc1 [(2,4-Dichloro-benzoyl)-phenyl-thiocarbamic acid O-(2-phenoxy-ethyl) ester] and O=C(c1cc(Cl)cc(Cl)c1)N(C(=S)OCCOc1ccccc1)c1ccccc1 [(3,5-Dichloro-benzoyl)-phenyl-thiocarbamic acid O-(2-phenoxy-ethyl) ester] are within 1.5-fold of each other in EC50: 11.6 µM for the first, 8.8 µM for the second.

O=C1c2ccccc2C(=O)N1CCOC(=S)N(C(=O)c1cccs1)c1ccccc1Cl [(2-Chloro-phenyl)-(thiophene-2-carbonyl)-thiocarbamic acid O-[2-(1,3-dioxo-1,3-dihydro-isoindol-2-yl)-ethyl] ester] and Cc1ccccc1N(C(=O)c1cccs1)C(=S)OCCN1C(=O)c2ccccc2C1=O [(Thiophene-2-carbonyl)-o-tolyl-thiocarbamic acid O-[2-(1,3-dioxo-1,3-dihydro-isoindol-2-yl)-ethyl] ester] are the same in EC50: 11 µM for the first, 11 µM for the second.

CCc1ccccc1N(C(=O)c1cccs1)C(=S)OCCN1C(=O)c2ccccc2C1=O [(2-Ethyl-phenyl)-(thiophene-2-carbonyl)-thiocarbamic acid O-[2-(1,3-dioxo-1,3-dihydro-isoindol-2-yl)-ethyl] ester] and COc1ccccc1N(C(=O)c1cccs1)C(=S)OCCN1C(=O)c2ccccc2C1=O [(2-Methoxy-phenyl)-(thiophene-2-carbonyl)-thiocarbamic acid O-[2-(1,3-dioxo-1,3-dihydro-isoindol-2-yl)-ethyl] ester] are the same in EC50: 11 µM for the first, 11 µM for the second.

Going from CC(COc1ccccc1)OC(=S)N(C(=O)COc1ccccc1)c1ccccc1 (configuration not stated) [(2-Phenoxy-acetyl)-phenyl-thiocarbamic acid O-(1-methyl-2-phenoxy-ethyl) ester] to O=C(COc1ccccc1)N(C(=S)OCCOc1ccccc1)c1ccccc1 [(2-Phenoxy-acetyl)-phenyl-thiocarbamic acid O-(2-phenoxy-ethyl) ester], the EC50 rises from 1.4 µM to 6 µM (4.3-fold). The first is the more potent here.

First: CC(=O)c1cccc(N(C(=O)c2cccs2)C(=S)OCCN2C(=O)c3ccccc3C2=O)c1 [(3-Acetyl-phenyl)-(thiophene-2-carbonyl)-thiocarbamic acid O-[2-(1,3-dioxo-1,3-dihydro-isoindol-2-yl)-ethyl] ester]
Second: Cc1cccc(N(C(=O)c2cccs2)C(=S)OCCN2C(=O)c3ccccc3C2=O)c1 [(Thiophene-2-carbonyl)-m-tolyl-thiocarbamic acid O-[2-(1,3-dioxo-1,3-dihydro-isoindol-2-yl)-ethyl] ester]
The EC50 of the first is 1.7-fold lower: 6 µM for the first, 10 µM for the second. The first is the more potent here.

First: O=C1c2ccccc2C(=O)N1CCOC(=S)N(C(=O)c1cccs1)c1cccc(Br)c1 [(3-Bromo-phenyl)-(thiophene-2-carbonyl)-thiocarbamic acid O-[2-(1,3-dioxo-1,3-dihydro-isoindol-2-yl)-ethyl] ester]
Second: O=C1c2ccccc2C(=O)N1CCOC(=S)N(C(=O)c1cccs1)c1cccc(Cl)c1 [(3-Chloro-phenyl)-(thiophene-2-carbonyl)-thiocarbamic acid O-[2-(1,3-dioxo-1,3-dihydro-isoindol-2-yl)-ethyl] ester]
The EC50 of the first is 5-fold lower: 1.2 µM for the first, 6 µM for the second.

CC(COc1ccccc1)OC(=S)N(C(=O)c1cccs1)c1cccc(Cl)c1 (configuration not stated) [(3-Chloro-phenyl)-(thiophene-2-carbonyl)-thiocarbamic acid O-(1-methyl-2-phenoxy-ethyl) ester] and CC(COc1ccccc1)OC(=S)N(C(=O)c1cccs1)c1ccc(Cl)cc1 (configuration not stated) [(4-Chloro-phenyl)-(thiophene-2-carbonyl)-thiocarbamic acid O-(1-methyl-2-phenoxy-ethyl) ester] are the same in EC50: 11 µM for the first, 11 µM for the second.

Going from O=C1c2ccccc2C(=O)N1CCOC(=S)N(C(=O)c1cccs1)c1cccc(F)c1 [(3-Fluoro-phenyl)-(thiophene-2-carbonyl)-thiocarbamic acid O-[2-(1,3-dioxo-1,3-dihydro-isoindol-2-yl)-ethyl] ester] to COc1cccc(N(C(=O)c2cccs2)C(=S)OCCN2C(=O)c3ccccc3C2=O)c1 [(3-Methoxy-phenyl)-(thiophene-2-carbonyl)-thiocarbamic acid O-[2-(1,3-dioxo-1,3-dihydro-isoindol-2-yl)-ethyl] ester], the EC50 falls from 11 µM to 3.5 µM (3.1-fold). The second is the more potent here.

Going from CC(COc1ccccc1)OC(=S)N(C(=O)c1cccc([N+](=O)[O-])c1)c1ccccc1 (configuration not stated) [(3-Nitro-benzoyl)-phenyl-thiocarbamic acid O-(1-methyl-2-phenoxy-ethyl) ester] to CC(COc1ccccc1)OC(=S)N(C(=O)c1ccccc1)c1ccccc1 (configuration not stated) [Benzoyl-phenyl-thiocarbamic acid O-(1-methyl-2-phenoxy-ethyl) ester], the EC50 falls from 3.6 µM to 1.3 µM (2.8-fold).

Going from O=C1c2ccccc2C(=O)N1CCOC(=S)N(C(=O)c1cccs1)c1cccc([N+](=O)[O-])c1 [(3-Nitro-phenyl)-(thiophene-2-carbonyl)-thiocarbamic acid O-[2-(1,3-dioxo-1,3-dihydro-isoindol-2-yl)-ethyl] ester] to O=C1c2ccccc2C(=O)N1CCOC(=S)N(C(=O)c1cccs1)c1ccc([N+](=O)[O-])cc1 [(4-Nitro-phenyl)-(thiophene-2-carbonyl)-thiocarbamic acid O-[2-(1,3-dioxo-1,3-dihydro-isoindol-2-yl)-ethyl] ester], the EC50 falls from 0.38 µM to 0.01 µM (38-fold).

O=C(c1ccc(Cl)c([N+](=O)[O-])c1)N(C(=S)OCCOc1ccccc1)c1ccccc1 [(4-Chloro-3-nitro-benzoyl)-phenyl-thiocarbamic acid O-(2-phenoxy-ethyl) ester] and O=C(c1ccc(Cl)cc1)N(C(=S)OCCOc1ccccc1)c1ccccc1 [(4-Chloro-benzoyl)-phenyl-thiocarbamic acid O-(2-phenoxy-ethyl) ester] are within 1.5-fold of each other in EC50: 7.6 µM for the first, 10.3 µM for the second.

First: O=C(c1ccc(Cl)cc1)N(C(=S)OCCc1ccccc1)c1ccccc1 [(4-Chloro-benzoyl)-phenyl-thiocarbamic acid O-phenethyl ester]
Second: Cc1ccc(C(=O)N(C(=S)OCCOc2ccccc2)c2ccccc2)cc1 [(4-Methyl-benzoyl)-phenyl-thiocarbamic acid O-(2-phenoxy-ethyl) ester]
The EC50 of the first is 2.5-fold lower: 4 µM for the first, 9.9 µM for the second.

First: CCN(CC)c1ccc(N(C(=O)c2cccs2)C(=S)OCCN2C(=O)c3ccccc3C2=O)cc1 [(4-Diethylamino-phenyl)-(thiophene-2-carbonyl)-thiocarbamic acid O-[2-(1,3-dioxo-1,3-dihydro-isoindol-2-yl)-ethyl] ester]
Second: Cc1ccc(N(C(=O)c2cccs2)C(=S)OCCN2C(=O)c3ccccc3C2=O)cc1 [(Thiophene-2-carbonyl)-p-tolyl-thiocarbamic acid O-[2-(1,3-dioxo-1,3-dihydro-isoindol-2-yl)-ethyl] ester]
The EC50 of the first is 28-fold higher: 11 µM for the first, 0.4 µM for the second.

Compared with CCc1ccc(N(C(=O)c2ccco2)C(=S)OCCN2C(=O)c3ccccc3C2=O)cc1 [(4-Ethyl-phenyl)-(furan-2-carbonyl)-thiocarbamic acid O-[2-(1,3-dioxo-1,3-dihydro-isoindol-2-yl)-ethyl] ester], O=C1c2ccccc2C(=O)N1CCOC(=S)N(C(=O)c1ccco1)c1ccc([N+](=O)[O-])cc1 [(Furan-2-carbonyl)-(4-nitro-phenyl)-thiocarbamic acid O-[2-(1,3-dioxo-1,3-dihydro-isoindol-2-yl)-ethyl] ester] is 3.8-fold lower in EC50: 0.03 µM for the first, 0.008 µM for the second. The second is the more potent here.

Compared with O=C1c2ccccc2C(=O)N1CCOC(=S)N(C(=O)c1cccs1)c1ccc(F)cc1 [(4-Fluoro-phenyl)-(thiophene-2-carbonyl)-thiocarbamic acid O-[2-(1,3-dioxo-1,3-dihydro-isoindol-2-yl)-ethyl] ester], O=C1c2ccccc2C(=O)N1CCOC(=S)N(C(=O)c1cccs1)c1ccc(I)cc1 [(4-Iodo-phenyl)-(thiophene-2-carbonyl)-thiocarbamic acid O-[2-(1,3-dioxo-1,3-dihydro-isoindol-2-yl)-ethyl] ester] is 10-fold lower in EC50: 0.1 µM for the first, 0.01 µM for the second. The second is the more potent here.

First: CC(COc1ccccc1)OC(=S)N(C(=O)c1cccs1)c1ccc([N+](=O)[O-])cc1 (configuration not stated) [(4-Nitro-phenyl)-(thiophene-2-carbonyl)-thiocarbamic acid O-(1-methyl-2-phenoxy-ethyl) ester]
Second: CC(COc1ccccc1)OC(=S)N(C(=O)c1ccco1)c1ccccc1 (configuration not stated) [(Furan-2-carbonyl)-phenyl-thiocarbamic acid O-(1-methyl-2-phenoxy-ethyl) ester]
The EC50 of the first is 4.6-fold higher: 6 µM for the first, 1.3 µM for the second.

Going from O=C(c1ccco1)N(C(=S)OCCOc1ccccc1)c1ccccc1 [(Furan-2-carbonyl)-phenyl-thiocarbamic acid O-(2-phenoxy-ethyl) ester] to O=C(c1ccco1)N(C(=S)OCCc1ccccc1)c1ccccc1 [(Furan-2-carbonyl)-phenyl-thiocarbamic acid O-phenethyl ester], the EC50 falls from 8.4 µM to 4.3 µM (2-fold). The second is the more potent here.

Going from O=C1c2ccccc2C(=O)N1CCOC(=S)N(C(=O)c1cccs1)c1cccc(C(F)(F)F)c1 [(Thiophene-2-carbonyl)-(3-trifluoromethyl-phenyl)-thiocarbamic acid O-[2-(1,3-dioxo-1,3-dihydro-isoindol-2-yl)-ethyl] ester] to O=C1c2ccccc2C(=O)N1CCOC(=S)N(C(=O)c1ccccc1)c1ccccc1 [Benzoyl-phenyl-thiocarbamic acid O-[2-(1,3-dioxo-1,3-dihydro-isoindol-2-yl)-ethyl] ester], the EC50 falls from 11 µM to 0.4 µM (28-fold).

CC(=O)Oc1ccccc1C(=O)N(C(=S)OCCOc1ccccc1)c1ccccc1 [Acetic acid 2-(2-phenoxy-ethoxythiocarbonyl)-phenyl-aminocarbonyl)-phenyl ester] and O=C(c1ccccc1)N(C(=S)OCCOc1ccccc1)c1ccccc1 [Benzoyl-phenyl-thiocarbamic acid O-(2-phenoxy-ethyl) ester] are within 1.5-fold of each other in EC50: 9.5 µM for the first, 8 µM for the second.

Going from O=C1c2ccccc2C(=O)N1CCOC(=S)N(C(=O)c1ccccc1)c1ccc(Br)cc1 [Benzoyl-(4-bromo-phenyl)-thiocarbamic acid O-[2-(1,3-dioxo-1,3-dihydro-isoindol-2-yl)-ethyl] ester] to O=C(c1ccccc1)N(C(=S)OCCOc1ccccc1)c1ccc(F)cc1 [Benzoyl-(4-fluoro-phenyl)-thiocarbamic acid O-(2-phenoxy-ethyl) ester], the EC50 rises from 0.035 µM to 4 µM (110-fold).

O=C(c1ccccc1)N(C(=S)OCCOc1ccccc1)C1CCCCC1 [Benzoyl-cyclohexyl-thiocarbamic acid O-(2-phenoxy-ethyl) ester] and O=C(c1ccccc1)N(C(=S)OCCSc1ccccc1)c1ccccc1 [Benzoyl-phenyl-thiocarbamic acid O-(2-phenylsulfanyl-ethyl) ester] cannot be ordered by EC50: 200 µM for the first, over 44 µM for the second.
